Results: patent US20050171151A1, “Methods of treating hyperlipidemia” (Allergan, Inc., priority 2001, published 2005)
Where “and” joins values, the source holds several entries; their conditions need not be identical. Identical values can stand only once. Entries after “also recorded” stand apart in the source; their conditions may differ. Like-named read-outs stand apart in the source and are kept apart here.

Columns and labels:
[1] = Stability to light; format: physicochemical
[2] = tested on: serum triglycerides; experiment: Serum triglycerides (STG) in male SJL mice; format: in vivo; settings: for Serum triglycerides, Day 4 0 hr (2 pm), group mean / Serum triglycerides, Day 3 8 a.m., group mean / Serum triglycerides, Day 4 0 hr (2 pm): 20 mg/kg oral gavage daily; for Serum triglycerides, Day 3 8 a.m., group mean / Serum triglycerides, Day 3 8 a.m.: non-fasting; for Serum triglycerides, Day 3 8 a.m. / Serum triglycerides, Day 4 0 hr (2 pm): individual male SJL mice, 20 mg/kg; for Serum triglycerides, Day 3 8 a.m.: 20 mg/kg oral gavage daily in corn oil; for Effect on non-fasting STG: Day 3, 8 a.m.
Description: Male SJL mice were dosed orally with vehicle, AGN 197116 (RARα antagonist) or AGN 194310 (RAR pan-antagonist) for 4 consecutive days. The structure of AGN 194310 is described herein below. The structure of AGN 197116 is: [drawing 16]
The test compounds were dissolved in corn oil and given at a dosage/volume of 20 mg/5 ml/kg. […]
(§1) On day 4, animals were fasted after dosing, starting at 8 a.m. Following 6 hours of fasting, blood samples were collected prior to intravenous injection of WR-1339 at 100 mg/5 ml/kg. Additional serum samples were collected at 1 and 2 hours after WR-1339 injection. WR-1339 is a detergent which inactivates lipoprotein lipase and thus prevents the removal of triglycerides from circulation. By measuring the increase of STG after WR-1339 administration in fasted animals, one can estimate the hepatic triglyceride (HTG) output during fasting.
(§2) Due to the lack of effect of AGN 197116 at 20 mg/kg, the dose was increased to 100 mg/kg in the same set of mice. STG was determined on day 3 prior to dosing (Day 3, 8 a.m.). […] To ensure that AGN 197116 would be bioavailable, AGN 197116 was dissolved in DMSO and given by intraperitoneal injections, once at 4 p.m. on day 3 and once at 8 a.m. on day 4, at a dosage of 100 mg/kg/injection. Administration of WR-1339 and blood collections on day 4 were similarly conducted as described above.

[3] = tested on: serum lipids (triglyceride, cholesterol, LDL, HDL); settings: for Triglyceride level after treatment: with diet and exercise
[4] = cynomolgus monkey, in vivo
Description: (§3) Five male cynomologus monkeys were employed in Study PT-99-10. Three of the five monkeys were treated with AGN 194310 at a daily dosage of 1.25 mg/kg (orally) for a period of 25 days. […] Its structure is described herein below. The remaining two were similarly treated with a vehicle to serve as control. Serum samples were collected on days 1, 8, 15, 22 and 25 for triglyceride determination. Serum samples from days 8, 15, 22 and 25 were also assayed for the concentration of AGN 194310.

[5] = Clinical observation, body weight and food consumption of treated monkeys; format: in vivo, cynomolgus monkeys
Source text: AGN 194310 is an RAR antagonist or inverse agonist. Its structure is described herein below.

[6] = tested on: serum triglycerides; experiment: Serum triglycerides in cynomolgus monkeys treated orally (Study PT-99-10); format: in vivo
Description: as §3, with “PT-99-10.” for “PT-99-10. Three of the five monkeys were treated with AGN 194310 at a daily dosage of 1.25 mg/kg (orally) for a period of 25 days.”

[7] = tested on: hepatic triglyceride output; experiment: Hepatic triglyceride (HTG) output: increase of STG after WR-1339 in fasted male SJL mice; format: in vivo; settings: for Serum triglycerides, Day 4 post-WR-1339 1 hr (3 p.m.), group mean / Serum triglycerides, Day 4 post-WR-1339 2 hr (4 p.m.), group mean / Serum triglycerides, Day 4 post-WR-1339 1 hr (3 p.m.) / Serum triglycerides, Day 4 post-WR-1339 2 hr (4 p.m.): fasted; for Effect on HTG output after WR-1339 injection: 20 mg/kg orally for 4 days
Description: as §1, §2

[8] = group mean, male SJL mice, after 6 hours fasting, before WR-1339
[9] = after 6 hours fasting, before WR-1339
[10] = male SJL mice, 20 mg/kg oral gavage daily, 1 hr after 100 mg/kg tyloxapol IV
[11] = male SJL mice, 20 mg/kg oral gavage daily, 2 hr after 100 mg/kg tyloxapol IV
[12] = individual male SJL mice, 20 mg/kg oral gavage daily, 1 hr after 100 mg/kg tyloxapol IV
[13] = individual male SJL mice, 20 mg/kg oral gavage daily, 2 hr after 100 mg/kg tyloxapol IV

SMILES: CCc1ccc(C2=CC(C)(C)Sc3ccc(C#Cc4ccc(C(=O)O)cc4)cc32)cc1 [AGN 194310, 4-[[4-(4-ethylphenyl)-2,2-dimethyl-(2H)-thiochromen-6-yl]-ethynyl]-benzoic acid]
- Stability to normal light [1]: relatively stable to normal light
- Serum triglycerides, Day 4 0 hr (2 pm), group mean [2, 8]: 71.5
- Serum triglycerides, Day 3 8 a.m., group mean ([2]; group mean, male SJL mice): 92.7
- Serum triglycerides, Day 3 8 a.m. [2]: 71.2 and 105.7 and 67.9 and 113.2 and 134.8 and 76.6 and 63.1 and 84.1 and 95.6 and 115.2
- Serum triglycerides, Day 4 0 hr (2 pm) [2, 9]: 76.6 and 76 (2×) and 57.3 and 74.7 and 80.5 and 71.5 and 73.4 and 61.1 and 67.6
- Effect on non-fasting STG ([2]; male SJL mice, 20 mg/kg orally): appeared to lower
- Effect on fasting STG ([2]; male SJL mice, 20 mg/kg orally, Day 4, 2 p.m.): but not fasting STG
- Triglyceride level after treatment ([3]; Example 1, person, tablet 20 mg daily, 3 months, initial 440 mg/dL): 280 mg/dL
- Triglyceride level after treatment ([3]; Example 2, person, tablet 50 mg twice daily, initial 950 mg/dL): 450 mg/dL
- Side effects ([3]; human, in vivo): no side effects
- Tolerability ([3]; human, in vivo): tolerates the medication well
- Oral absorption [4]: well absorbed
- Body weight and rate of food consumption ([5]; 1.25 mg/kg orally daily, throughout the 25 day study): no change in body weight or rate of food consumption
- Abnormal clinical signs ([5]; daily dose 1.25 mg/kg orally, 25 days): without any noticeable abnormal clinical signs
- Serum triglycerides, Day 1 ([6]; individual male cynomolgus monkeys, by gastric intubation daily, Day 1 (baseline)): 48.8 mg/dL and 52.5 mg/dL and 58.5 mg/dL
- Serum triglycerides, Day 8 ([6]; individual male cynomolgus monkeys, by gastric intubation daily, Day 8): 24.3 mg/dL and 21.6 mg/dL and 19.2 mg/dL
- Serum triglycerides, Day 15 ([6]; individual male cynomolgus monkeys, by gastric intubation daily, Day 15): 18.2 mg/dL and 30.7 mg/dL and 29.6 mg/dL
- Serum triglycerides, Day 22 ([6]; individual male cynomolgus monkeys, by gastric intubation daily, Day 22): 30.4 mg/dL and 20.6 mg/dL and 36.5 mg/dL
- Serum triglycerides, Day 25 ([6]; individual male cynomolgus monkeys, by gastric intubation daily, Day 25): 20.3 mg/dL and 23.4 mg/dL and 28.3 mg/dL
- Serum triglycerides, Day 1, group mean ([6]; mean of 3 monkeys, by gastric intubation, Day 1 (baseline)): 53.3 mg/dL
- Serum triglycerides, Day 8, group mean ([6]; mean of 3 monkeys, by gastric intubation, Day 8): 21.7 mg/dL
- Serum triglycerides, Day 15, group mean ([6]; mean of 3 monkeys, by gastric intubation, Day 15): 26.2 mg/dL
- Serum triglycerides, Day 22, group mean ([6]; mean of 3 monkeys, by gastric intubation, Day 22): 29.2 mg/dL
- Serum triglycerides, Day 25, group mean ([6]; mean of 3 monkeys, by gastric intubation, Day 25): 24.0 mg/dL
- Effect on serum triglycerides ([6]; monkeys, daily dose 1.25 mg/kg orally, 1.25 mg/kg): highly significant decrease of serum triglycerides; also recorded: lowers serum triglycerides
- Average decrease of serum triglycerides compared to day 1 (baseline) ([6]; per treated monkey, 1.25 mg/kg orally daily for 25 days, control monkeys increased 48% and 89%, 1.25 mg/kg): 52% and 54% and 51%
- Serum triglycerides, Day 4 post-WR-1339 1 hr (3 p.m.), group mean [7, 10]: 266.3
- Serum triglycerides, Day 4 post-WR-1339 2 hr (4 p.m.), group mean [7, 11]: 485.6
- Serum triglycerides, Day 4 post-WR-1339 1 hr (3 p.m.) [7, 12]: 216.8 and 307.2 and 294.9 and 311.7 and 238.7 and 303.9 and 260 and 252.3 and 210.9
- Serum triglycerides, Day 4 post-WR-1339 2 hr (4 p.m.) [7, 13]: 328.5 and 548 and 562.9 and 577.1 and 493.8 and 508 and 550 and 542.9 and 259.1
- Effect on HTG output after WR-1339 injection ([7]; male SJL mice): reduction of HTG output

SMILES: Cc1ccc(C2=CCC(C)(C)c3cc(O)c(C(=O)Nc4ccc(C(=O)O)c(F)c4)cc32)cc1 [AGN 197116]
- Effect on STG ([2]; SJL mice, 100 mg/kg orally, Day 3, 8 a.m. prior to dosing): no lowering of STG was observed
- Effect on STG ([2]; SJL mice, 16 hours after a single intraperitoneal 100 mg/kg dose in DMSO (Day 4, 8 a.m.)): clear lowering of STG
- Effect on fasting STG ([2]; SJL mice, intraperitoneal 100 mg/kg/injection, after fasting (Day 4, 2 p.m.)): this effect disappeared after fasting
- Serum triglycerides, Day 4 post-WR-1339 0 hr (2 pm), group mean ([2]; group mean, SJL mice, 100 mg/kg oral then I.P., after 6 hours fasting, before WR-1339): 50
- Serum triglycerides, Day 4 0 hr (8 am), group mean ([2]; group mean, SJL mice, 16 hours after a single 100 mg/kg I.P. dose): 79
- Serum triglycerides, Day 3 0 Hour, group mean ([2]; group mean, SJL mice, Day 1-3 100 mg/kg oral, Day 3 prior to dosing): 118
- Serum triglycerides, Day 4 0 hr (2 pm), group mean [2, 8]: 72.4
- Serum triglycerides, Day 3 8 a.m., group mean ([2]; group mean, male SJL mice): 123.0
- Serum triglycerides, Day 4 0 hr (8 am) ([2]; individual SJL mice, 16 hours after a single 100 mg/kg I.P. dose (after Day 1-3 100 mg/kg oral), 100 mg/kg): 58 and 79 and 51 and 114 and 50 and 125
- Serum triglycerides, Day 4 post-WR-1339 0 hr (2 pm) ([2]; individual SJL mice, Day 1-3 100 mg/kg oral, Day 3-4 100 mg/kg I.P., after 6 hours fasting, before WR-1339, 100 mg/kg): 42 mg/dL (2×) and 36 mg/dL and 73 mg/dL and 59 mg/dL and 50 mg/dL
- Serum triglycerides, Day 3 0 Hour ([2]; individual SJL mice, Day 1-3 100 mg/kg oral, Day 3 prior to dosing, 100 mg/kg): 81 and 104 and 103 and 139 and 107 and 171
- Serum triglycerides, Day 3 8 a.m. [2]: 128.7 and 124 and 150.3 and 110.5 and 118.6 and 124.7 and 112.5 and 106.4 and 131.4
- Serum triglycerides, Day 4 0 hr (2 pm) [2, 9]: 63.1 and 91.7 and 43 and 72.1 and 90.8 and 76 and 68.2 and 73.4 (2×)
- Effect on non-fasting STG ([2]; male SJL mice, 20 mg/kg orally): not observed
- Effect on HTG output ([7]; SJL mice, intraperitoneal injection 100 mg/kg/injection): reduced
- Serum triglycerides, Day 4 post-WR-1339 1 hr (3 p.m.), group mean ([7]; SJL mice, 100 mg/kg oral then I.P., 1 hr after WR-1339): 222
- Serum triglycerides, Day 4 post-WR-1339 2 hr (4 p.m.), group mean ([7]; SJL mice, 100 mg/kg oral then I.P., 2 hr after WR-1339): 345
- Serum triglycerides, Day 4 post-WR-1339 1 hr (3 p.m.), group mean [7, 10]: 334.2
- Serum triglycerides, Day 4 post-WR-1339 2 hr (4 p.m.), group mean [7, 11]: 646.8
- Serum triglycerides, Day 4 post-WR-1339 1 hr (3 p.m.) ([7]; individual SJL mice, Day 1-3 100 mg/kg oral, Day 3-4 100 mg/kg I.P., 1 hr after WR-1339, 100 mg/kg): 220 and 195 and 248 and 345 and 126 and 197
- Serum triglycerides, Day 4 post-WR-1339 2 hr (4 p.m.) ([7]; individual SJL mice, Day 1-3 100 mg/kg oral, Day 3-4 100 mg/kg I.P., 2 hr after WR-1339, 100 mg/kg): 285 and 272 and 396 and 531 and 200 and 387
- Serum triglycerides, Day 4 post-WR-1339 1 hr (3 p.m.) [7, 12]: 360.1 and 380.1 and 464.1 and 241.9 and 331.7 and 329.8 and 262.6 and 311 and 326.5
- Serum triglycerides, Day 4 post-WR-1339 2 hr (4 p.m.) [7, 13]: 726.9 and 723.7 and 770.2 and 590 and 575.2 and 700.4 and 462.8 and 659.1 and 612.6
- Effect on HTG output after WR-1339 injection ([7]; male SJL mice): not observed
